# Literature values as cited in US9067940B2, “Alicyclic derivatives of N,N'-substituted 3,7-diazabicyclo[3.3.1]nonanes and medicaments based thereon” (priority 2011, dated 2015).
# Legend:
# AMPA receptors [1] = conditions: adult rats, 0.3-3 mg/kg
# AMPA receptors [2] = system: AMPA receptors
# AMPA receptors [3] = conditions: only at high concentrations
# [4] = behavioral models
# [5] = mice suffering from diabetes
molecule,measurement,setting,value
O=C(c1ccc2c(c1)OCCO2)N1CCCCC1 [CX546],social memory,AMPA receptors [1],improves social memory
COc1ccc(C(=O)N2CCCC2=O)cc1 [aniracetam],effect on synaptic signal at several hippocampus sites,AMPA receptors [2],enhances the synaptic signal
same,effect on NMDA-mediated signals,NMDA-mediated signals,no effect
same,concentration at which the clinical effect is manifested,AMPA receptors [3],0.1 mM
COc1ccc(C(=O)NCCCC(=O)O)cc1 [anisoyl-GABA],aniracetam-like effects,AMPA receptors [2]; metabolite of aniracetam,no aniracetam-like effects
"BDNF: brain-derived neurotrophic factor, a neural tissue growth factor (protein, UniProt P23560 19-247, looked up) Neurotrophic factor BDNF …: APMKEANIRGQGGLAYPGVRTHGTLESVNGPKAGSRGLTSLADTFEHVIEELLDEDQKVRPNEENNKDADLYTSRVMLSSQVPLEPPLLFLLEEYKNYLDAANMSMRVRRHSDPARRGELSVCDSISEWVTAADKKTAVDMSGGTVTVLEKVPVSKGQLKQYFYETKCNPMGYTKEGCRGIDKRHWNSQCRTTQSYVRALTMDSKKRIGWRFIRIDTSCVCTLTIKRGR",antidepressant effect,[4],antidepressant effect
same,blood glucose concentration,[5],reduce the blood glucose concentration
